Here are results for seven molecules from patent US20240026461A1, “BCL10 MUTATIONS AS BIOMARKERS FOR TARGETED THERAPY IN B CELL LYMPHOMAS” (priority 2022, published 2024).

Numbering of substitutions follows the chain as printed. In names and notes the source's numbering stands. Where two headings read alike, the source gives them in different places. Bounds are passed on as bounds.

The subject of one data set is HBL1^WT. Briefly: Growth inhibition assay (CellTiter Glo), HBL1 cells expressing BCL10 WT. It is filed as cell-based. As to conditions: Homo sapiens, 96 h. On the procedure: (§1) DLBCL cell lines were cultured in exponential condition and the cell growth was determined by CellTiter Glo (Promega). 3000-5000 cells were seeded and cultured in each well of 384 well plate for 96 h and treated with compounds every 48 h. Luminescence was read at the endpoint with the Synergy NEO microplate reader (BioTek). The value of compound treated cells was normalized to their vehicle treated controls and then used to calculate IC50 in GraphPad Prism (RRID:SCR_002798).
(§2) Given the distinct functional profiles, CARD11 dependencies, and MALT1 activation effects of the BCL10 CARD and truncation mutants, the inventors designed experiments to evaluate whether, and to what extent, these mutant BCL10 proteins might confer BTK inhibitor resistance. Isogenic ABC-DLBCL cells expressing BCL10WT, BCL10^R58Q and BCL10^E140X proteins were treated with escalating doses of three chemically distinct covalent BTK inhibitors: ibrutinib, acalabrutinib, or zanubrutinib. The cellular proliferation rates of the treated cells were measured using an ATP fluorescence assay after 96 hours of drug exposure.
(§3) Isogenic BCL10^WT, BCL10^R58Q and BCL10^E140X ABC-DLBCLs were exposed to increasing concentrations of each of these compounds for 96 hours.
For orientation: Cellular ATP, detected with luciferase, serves as a proxy for viable cell number.

The subject of another data set is HBL1^R58Q. Kind of data set: Growth inhibition assay (CellTiter Glo), HBL1 cells expressing BCL10 R58Q. As to conditions: Homo sapiens, 96 h. The data set is classed as cell-based. On the procedure: as §1, §2, §3
The subject of a further data set is HBL1^E140X. Kind of data set: Growth inhibition assay (CellTiter Glo), HBL1 cells expressing BCL10 E140X. The following applies: Homo sapiens, 96 h. It is filed as cell-based. On the procedure:
as §1, §2, §3

The test system of the next data set is OCI-LY10^WT. Briefly: Growth inhibition assay (CellTiter Glo), OCI-Ly10 cells expressing BCL10 WT. It is filed as cell-based. The following applies: Homo sapiens, 96 h. The method, then:
as §1, §2, §3

A further data set has as its system OCI-LY10^R58Q. Kind of data set: Growth inhibition assay (CellTiter Glo), OCI-Ly10 cells expressing BCL10 R58Q. The data set is classed as cell-based. The following applies: Homo sapiens, 96 h. The method, then: as §1, §2, §3
The next data set deals with OCI-LY10^E140X. Kind of data set: Growth inhibition assay (CellTiter Glo), OCI-Ly10 cells expressing BCL10 E140X. It is filed as cell-based. The following applies: Homo sapiens, 96 h. The method, then:
as §1, §2, §3

Data set [1] relates to isogenic ABC-DLBCL cells expressing BCL10^WT, BCL10^R58Q and BCL10^E140X. Briefly: Growth inhibition of isogenic ABC-DLBCL cells, response described in words. The data set is classed as cell-based, human. The following applies: 96 hours. On the procedure:
as §1, §2, §3

In data set [2] the target is T1, Full length His-tagged MALT1 (human, UniProt Q9UDY8 2-824).
T1 construct: mature; also called purified, full length MALT1; FL MALT1; not shown: His tag
T1 sequence (looked up): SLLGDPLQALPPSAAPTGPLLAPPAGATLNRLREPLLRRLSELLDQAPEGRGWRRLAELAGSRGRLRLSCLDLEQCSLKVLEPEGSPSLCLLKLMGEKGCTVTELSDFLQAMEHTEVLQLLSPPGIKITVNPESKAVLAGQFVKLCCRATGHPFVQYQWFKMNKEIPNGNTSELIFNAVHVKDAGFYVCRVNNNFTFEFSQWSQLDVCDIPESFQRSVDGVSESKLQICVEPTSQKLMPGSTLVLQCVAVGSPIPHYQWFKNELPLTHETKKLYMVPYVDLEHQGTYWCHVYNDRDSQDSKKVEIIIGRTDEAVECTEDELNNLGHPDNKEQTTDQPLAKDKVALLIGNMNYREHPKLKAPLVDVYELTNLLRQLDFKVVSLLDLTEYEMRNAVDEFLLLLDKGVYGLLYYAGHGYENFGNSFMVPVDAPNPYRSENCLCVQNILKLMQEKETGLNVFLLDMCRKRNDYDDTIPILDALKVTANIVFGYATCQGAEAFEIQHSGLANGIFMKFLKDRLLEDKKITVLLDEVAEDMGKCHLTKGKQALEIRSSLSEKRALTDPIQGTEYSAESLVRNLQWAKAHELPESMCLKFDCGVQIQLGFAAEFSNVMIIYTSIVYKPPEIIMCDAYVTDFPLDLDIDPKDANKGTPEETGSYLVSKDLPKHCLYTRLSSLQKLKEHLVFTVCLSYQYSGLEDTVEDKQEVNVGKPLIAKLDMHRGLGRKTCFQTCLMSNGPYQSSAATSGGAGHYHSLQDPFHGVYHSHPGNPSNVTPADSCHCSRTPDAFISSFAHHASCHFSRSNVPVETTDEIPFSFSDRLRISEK
Kind of data set: negative staining EM of BCL10 filaments incubated with MALT1. The method, then: This new MALT1 binding domain is deleted from BCL10^E140X. The inventors next explored whether there was any impairment in MALT1 recruitment to BCL10 filaments, by generating BCL10^WT and BCL10^E140X filaments in vitro and incubating them with purified, full length MALT1 followed by negative staining electron microscopy (EM). […] However, this experiment may not provide sufficient resolution to show whether MALT1 distribution on the different BCL10 polymers was altered. Therefore, cryo-EM data were then collected on a Titan Krios microscope operating ats 300 keV and equipped with a Falcon II direct electron detector. The cryo-EM structure of BCL10^E140X filaments in complex with MALT1 was thus determined at 4.3 Å resolution.
Given that this new MALT1 binding domain is deleted from BCL10^E140X we next explored whether there was any impairment in MALT1 recruitment to BCL10 filaments, by generating BCL10^WT and BCL10^E140X filaments in vitro and incubating them with purified, full length MALT1 followed by negative staining EM. […] The structure of the BCL10^E140X filament with MALT1 was highly similar to that of the BCL10^WT filament with MALT1 at 4.9 Å resolution, in which the DDS of MALT1 bind the CARD of BCL10 and decorate the outside of the core CARD filament (FIG. 11G-I).

Data set [3] concerns the molecule itself. Briefly: confocal fluorescence microscopy of Alexa488-BCL10 filaments 4 h after 3C cleavage of MBP; self-association. On the procedure:
To determine the mechanism through which BCL10 mutants might confer a biochemical gain of function, full-length BCL10^WT, BCL10^E140X and BCL10^R58Q fused to a 3C protease-cleavable maltose binding protein (MBP) at the N-terminus to keep the proteins in a monomeric state were expressed and purified (FIG. 9A). The purified proteins were labeled with Alexa488 through cysteine residues in the unstructured C-terminal region. Spontaneous filament formation was then assessed by confocal fluorescence microscopy as a function of BCL10 concentration 4 h after mixing with the 3C protease to remove the MBP tag. […] The kinetics of filament formation by these proteins was imaged at […] concentration, which is above the concentration of polymerization for WT and these mutant BCL10 proteins using time lapse confocal fluorescence microscopy.

Data set [4] concerns the target T2, BCL10^E140X (recombinant, after 3C cleavage of the MBP tag).
T2 chain: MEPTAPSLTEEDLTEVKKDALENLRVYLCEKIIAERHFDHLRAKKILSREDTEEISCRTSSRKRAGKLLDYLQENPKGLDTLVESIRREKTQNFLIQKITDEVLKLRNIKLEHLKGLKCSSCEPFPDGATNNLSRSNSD

Data set [5] has as its target T3, BCL10^R58Q (recombinant, full-length, after 3C cleavage of the MBP tag).
T3 chain: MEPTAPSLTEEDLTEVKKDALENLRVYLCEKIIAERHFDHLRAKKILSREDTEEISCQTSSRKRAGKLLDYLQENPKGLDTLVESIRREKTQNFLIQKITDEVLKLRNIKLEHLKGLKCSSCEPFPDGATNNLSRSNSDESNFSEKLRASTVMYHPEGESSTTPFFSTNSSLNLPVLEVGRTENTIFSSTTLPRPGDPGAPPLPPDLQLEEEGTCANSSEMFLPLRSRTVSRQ

The target of data set [6] is T4, BCL10^WT (recombinant, full-length, after 3C cleavage of the MBP tag).
T4 chain: T3 chain with Q58R

Where [7] appears, read: read-out: IC50, growth inhibition, BTK inhibitors.
[8] abbreviates: read-out: IC50, growth inhibition, MALT1 inhibitors.

`CC#CC(=O)N1CCC[C@H]1c1nc(-c2ccc(C(=O)Nc3ccccn3)cc2)c2c(N)nccn12` [Acalabrutinib]: the concentration for half-maximal inhibition (IC50) (in general, the concentration at which inhibition is half-maximal) with HBL1^WT (setting [7]) was 4.75 ± 2.11 nM; in the data set on HBL1^R58Q (setting [7]) it was 5.54 ± 0.32 nM; in the data set with HBL1^E140X (setting [7]), 28.2 ± 21.2 nM; with OCI-LY10^WT (setting [7]), 6.38 ± 0.35 nM; in the data set with OCI-LY10^R58Q (setting [7]), 7.69 ± 0.59 nM; in the data set on OCI-LY10^E140X (setting [7]) it was 5.39 ± 0.77 nM.
On to `CO[C@H](c1c(NC(=O)Nc2cnc(-n3nccn3)c(Cl)c2)cnc2cc(Cl)nn12)[C@@H](C)OC` [MLT-748], for which the IC50 turned out to be 1940 ± 200 nM in the data set on HBL1^WT (setting [8]); 3320 ± 1460 nM in the data set with HBL1^R58Q (setting [8]); 540 ± 500 nM with HBL1^E140X (setting [8]); 70 ± 6 nM in the data set with OCI-LY10^WT (setting [8]); 240 ± 50 nM with OCI-LY10^R58Q (setting [8]); 90 ± 60 nM in the data set on OCI-LY10^E140X (setting [8]). Further, the “growth response in words” value in data set [1] (BCL10^R58Q ABC-DLBCL cells) and in data set [1] (BCL10^WT ABC-DLBCL cells) was “generally sensitive” throughout.
For the molecule `C=CC(=O)N1CCC([C@@H]2CCNc3c(C(N)=O)c(-c4ccc(Oc5ccccc5)cc4)nn32)CC1` [Zanubrutinib], the IC50 with HBL1^WT (setting [7]) is 1.46 ± 0.32 nM; in the data set with HBL1^R58Q (setting [7]), 1.58 ± 0.06 nM; in the data set with HBL1^E140X (setting [7]) it was 9.31 ± 6.22 nM; in the data set on OCI-LY10^WT (setting [7]), 1.74 ± 0.08 nM; in the data set with OCI-LY10^R58Q (setting [7]), 1.81 ± 0.33 nM; with OCI-LY10^E140X (setting [7]), 2.86 ± 0.13 nM.

B1: BCL10^WT (recombinant, full-length, after 3C cleavage of the MBP tag) (other)
chain: T3 chain with Q58R
modifications: Alexa488 (C5-maleimide) on cysteine residues in the confocal and quenching assays
notes: Made as His-MBP-3C site-BCL10 (vector pDB-His-MBP); MBP removed by 3C protease to start filament formation; Forms helical filaments (number of copies not fixed); also called BCL10 FL; BCL10 WT filaments
For the molecule B1, the binding result in [2] is “binds”. Besides, the concentration of polymerization in data set [3] is roughly 500 nM.

B2: BCL10^R58Q (recombinant, full-length, after 3C cleavage of the MBP tag) (other)
chain: T3 chain
modifications: Alexa488 (C5-maleimide) on cysteine residues in the confocal and quenching assays
notes: Made as His-MBP-3C site-BCL10; MBP removed by 3C protease; Forms filaments; also called R58Q filaments
Turning to B2, the concentration of polymerization in data set [3] was roughly 250 nM.

B3: BCL10^E140X (recombinant, after 3C cleavage of the MBP tag) (other)
chain: T2 chain
modifications: Alexa488 (C5-maleimide) on cysteine residues in the confocal and quenching assays
notes: Range 1-139 from the name E140X; Made as His-MBP-3C site-BCL10; MBP removed by 3C protease; also called E140X filaments; BCL10 (1-140)
As for B3, the binding result in [2] is given as “binds”. In addition, the concentration of polymerization in [3] is no more than 100 nM.

B4: Full length His-tagged MALT1 (protein)
chain: T1 sequence (looked up)
For the molecule B4, the “BCL10 polymerization kinetics by fluorescence quenching (3 µM Alexa488-BCL10, MALT1 at 0, 1.5, 3, 6 and 12 µM)” value is “there was little suppression of BCL10^E140X polymerization by MALT1 at any dose” in data set [4]; “increasing doses of MALT1 suppressed BCL10^WT and BCL10^R58Q filament formation in a dose dependent manner” in [5]; “increasing doses of MALT1 suppressed BCL10^WT and BCL10^R58Q filament formation in a dose dependent manner” in [6].
